Laboratory results published in patent publication US20040093169A1, “Method of designing molecular structure of enzyme inhibitor” (TOYO SUISAN KAISHA, LTD., priority 2000, published 2004).

Tests used:
[1] = biological target: HIV reverse transcriptase (Human immunodeficiency virus type 1 group M subtype B, UniProt P03366); assay: Inhibitory activity on HIV reverse transcriptase; assay type: biochemical; settings: compared with inhibitory activity on rat pol. β
Experimental: The confirmation of the inhibitory activity of nervonic acid on HIV reverse transcriptase was carried out.
Specifically, the inhibitory activity of nervonic acid on HIV reverse transcriptase was measured according to the method described in reference 8 listed below.

rat pol. β = rat pol. β (Rattus norvegicus, UniProt P06766); assay: Inhibitory activity on rat pol. β ([3H]-dTTP incorporation, poly(dA)/oligo(dT)12-18); assay type: biochemical; settings: compared among fatty acids
Experimental: The activity of rat pol. β was measured according to the method described in reference 3 listed below, by using poly(dA)/oligo(dT)12-18 (template DNA) and [^3H]-dTTP (nucleotide) as substrates and measuring radiation of [^3H]-dTTP incorporated in the presence of nervonic acid of different concentrations.
FIG. 5 is a graph showing an inhibition curve. In FIG. 5, the vertical axis represents the activity of rat pol. β and the horizontal axis represents the concentration of nervonic acid.

DNA polymerase = settings: reported by Ogawa et al., Jpn. J. Cancer Res. 89, 1154-1159, 1998; cited from earlier work

SMILES	inhibitory activity on HIV reverse transcriptase (inhibition curve, FIG. 15) [1]	inhibition of rat pol. β (rat pol. β)	inhibitor on DNA polymerase (DNA polymerase)
CCCCCCCC/C=C\CCCCCCCCCCCCCC(=O)O [nervonic acid, cis-15-tetracosenoic acid]	substantially equal to the inhibitory activity of nervonic acid on rat pol. β	one of the fatty acids which most strongly inhibit rat pol. β	
C[C@H](CCC(=O)O)[C@H]1CC[C@H]2[C@@H]3CC[C@@H]4C[C@H](O)CC[C@]4(C)[C@H]3CC[C@]12C [lithocholic acid, 3-α-hydroxy-5β-cholanoic acid]			known as inhibitors on DNA polymerase
